The values below come from patent US10150739B2, “Crystalline form of androgen receptor inhibitor and preparation method thereof” (priority 2015, dated 2018).

The IC50 is the concentration that inhibits the measured activity by half.

Data set [1] concerns the target T1, AR (Homo sapiens, UniProt P10275).
T1 sequence (P10275 1-920): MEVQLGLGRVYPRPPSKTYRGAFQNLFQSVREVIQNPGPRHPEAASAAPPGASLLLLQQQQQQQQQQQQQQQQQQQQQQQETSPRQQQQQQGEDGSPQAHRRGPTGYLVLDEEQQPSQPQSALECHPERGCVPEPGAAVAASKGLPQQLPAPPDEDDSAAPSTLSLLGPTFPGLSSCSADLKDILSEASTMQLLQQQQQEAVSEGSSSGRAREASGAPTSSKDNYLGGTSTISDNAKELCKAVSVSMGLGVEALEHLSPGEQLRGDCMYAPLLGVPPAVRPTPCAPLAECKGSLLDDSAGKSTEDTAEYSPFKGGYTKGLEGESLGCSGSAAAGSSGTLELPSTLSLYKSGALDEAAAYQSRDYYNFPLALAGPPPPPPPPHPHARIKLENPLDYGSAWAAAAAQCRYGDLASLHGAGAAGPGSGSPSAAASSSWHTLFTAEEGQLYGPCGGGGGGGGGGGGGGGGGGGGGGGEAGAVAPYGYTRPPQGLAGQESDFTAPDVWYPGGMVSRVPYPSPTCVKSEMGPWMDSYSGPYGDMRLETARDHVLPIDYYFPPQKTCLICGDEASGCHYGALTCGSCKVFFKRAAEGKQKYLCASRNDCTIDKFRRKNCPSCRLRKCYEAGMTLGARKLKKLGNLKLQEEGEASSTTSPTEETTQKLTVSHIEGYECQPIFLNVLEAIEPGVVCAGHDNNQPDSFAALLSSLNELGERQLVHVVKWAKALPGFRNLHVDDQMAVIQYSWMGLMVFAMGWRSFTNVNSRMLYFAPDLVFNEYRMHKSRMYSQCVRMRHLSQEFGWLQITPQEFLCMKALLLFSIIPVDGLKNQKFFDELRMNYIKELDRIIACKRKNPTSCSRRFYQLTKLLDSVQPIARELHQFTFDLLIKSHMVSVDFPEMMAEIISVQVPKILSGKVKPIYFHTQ
The note with it: compared with MDV-3100; cited from earlier work.

Data set [2] addresses T1, AR. The note with it: cited from earlier work.
For another data set, the target named is hERG (Homo sapiens, UniProt Q12809). The following applies: cited from earlier work.
Sequence of hERG (Q12809 whole entry): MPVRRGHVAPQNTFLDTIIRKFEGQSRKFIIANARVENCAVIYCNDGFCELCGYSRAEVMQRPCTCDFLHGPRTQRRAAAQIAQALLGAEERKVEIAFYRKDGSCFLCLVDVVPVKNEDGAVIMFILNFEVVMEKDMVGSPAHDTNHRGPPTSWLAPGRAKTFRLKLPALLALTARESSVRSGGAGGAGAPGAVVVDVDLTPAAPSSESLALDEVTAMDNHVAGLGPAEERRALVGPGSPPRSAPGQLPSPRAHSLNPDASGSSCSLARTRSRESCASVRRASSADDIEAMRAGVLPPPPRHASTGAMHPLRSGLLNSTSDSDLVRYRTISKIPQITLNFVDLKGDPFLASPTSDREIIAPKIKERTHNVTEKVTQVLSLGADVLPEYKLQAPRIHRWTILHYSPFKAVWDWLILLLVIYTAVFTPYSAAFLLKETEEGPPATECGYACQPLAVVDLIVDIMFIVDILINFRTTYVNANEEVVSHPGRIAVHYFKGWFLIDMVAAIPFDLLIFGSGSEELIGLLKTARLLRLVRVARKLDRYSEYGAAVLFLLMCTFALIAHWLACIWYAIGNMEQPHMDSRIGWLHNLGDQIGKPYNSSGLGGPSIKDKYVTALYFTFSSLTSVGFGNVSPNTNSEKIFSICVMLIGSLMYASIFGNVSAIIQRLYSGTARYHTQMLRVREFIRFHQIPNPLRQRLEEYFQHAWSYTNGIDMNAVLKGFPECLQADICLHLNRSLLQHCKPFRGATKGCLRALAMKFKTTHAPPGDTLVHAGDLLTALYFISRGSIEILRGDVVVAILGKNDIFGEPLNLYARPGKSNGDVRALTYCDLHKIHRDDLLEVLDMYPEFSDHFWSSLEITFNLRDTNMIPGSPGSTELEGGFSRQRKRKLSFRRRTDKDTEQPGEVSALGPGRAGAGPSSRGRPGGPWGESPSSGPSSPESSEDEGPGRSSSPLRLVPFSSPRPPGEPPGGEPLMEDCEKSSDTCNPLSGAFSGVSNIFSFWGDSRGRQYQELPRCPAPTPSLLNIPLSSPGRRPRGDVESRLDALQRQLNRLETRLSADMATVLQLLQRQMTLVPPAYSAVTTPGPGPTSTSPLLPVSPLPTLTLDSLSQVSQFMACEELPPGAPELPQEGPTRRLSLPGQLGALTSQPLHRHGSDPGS
In data set [3] the test system is five major subtypes of CYP450. The following applies: cited from earlier work.
The conditions of data set [4]: rat; cited from earlier work.
The conditions of data set [5]: dog; cited from earlier work.
The conditions of data set [6]: mouse, in vivo; cited from earlier work.
Data set [7] is classed as physicochemical. Here is the method:
The compound of formula (I) (0.5 g, 1.04 mmol) (prepared according to Example 1) and the compound of formula (I) (0.5 g, 1.04 mmol) (prepared according to Example 11) were added to a 25 mL one-necked flask, followed by addition of 4.0 mL of ethyl acetate-isopropyl ether (v:v=1:1). The mixture was pulped at room temperature, then filtered and dried to obtain a solid (872 mg, yield: 87.2%).
The compound of formula (I) (0.5 g, 1.04 mmol) (prepared according to Example 1) and the compound of formula (I) (0.5 g, 1.04 mmol) (prepared according to Example 12) were added to a 25 mL one-necked flask, followed by addition of 4.0 mL of ethyl acetate-isopropyl ether (v:v=1:1). The mixture was pulped at room temperature, then filtered and dried to obtain a solid (850 mg, yield: 85.0%).

The test system of data set [8] is AIPC. The following applies: mouse; cited from earlier work.
Data set [9] concerns AIPC. The note with it: human; cited from earlier work.
Data set [10] is classed as physicochemical. Here is the method:
Samplings were carried out on Day 5 and Day 10.
The source holds these as a separate data set.

The format of data set [11] is physicochemical. The source holds these as a separate data set.
Data set [12] is classed as physicochemical. The note with it: for Crystal form / Purity: 25° C., RH 60%. The procedure:
The sample was placed under conditions of 25° C., RH 60% for a long period of time, and regular sampling was carried out to determine the purity.

The structures appear in SMILES notation. Like-named read-outs stand apart in the source and are kept apart here. Some results are limits rather than exact numbers.

For `CC1(C)C(=O)N(c2ccc(C#N)c(C(F)(F)F)c2)C(=S)N1c1ccc(OC[C@@H](O)CO)cc1` [compound of formula (I), (S)-4-(3-(4-(2,3-dihydroxypropoxy)phenyl)-4,4-methyl-5-carbonyl-2-thioimidazolin-1-yl)-2-(trifluoromethyl)benzonitrile], on AR [1], the activity in vitro result is reported as “slightly better than that of MDV-3100”. Also, the AR agonist activity entry at AR [2] (at 3 μM) and on AR [2] (at 10 μM) was “no AR agonist activity” in each case. For the same compound, the figures for the IC50 (on hERG; in data set [3]) were 24.8 µM and more than 50 µM, respectively. The in vivo exposure entry is “comparable to that of MDV-3100” in data set [4] and “more than six times that of MDV-3100” in data set [5]. The “ratio of drug concentration in brain tissue to drug concentration in plasma” value in [6] is given as “much lower than that of MDV-3100”.

For `CC1(C)C(=O)N(c2ccc(C#N)c(C(F)(F)F)c2)C(=S)N1c1ccc(OC[C@@H](O)CO)cc1` [crystal form III], the crystal form transformation entry in [7] (pulped with crystal form I in ethyl acetate-isopropyl ether (v:v=1:1) at room temperature) is listed as “can be transformed into crystal form I”.

Consider `CNC(=O)c1ccc(N2C(=S)N(c3ccc(C#N)c(C(F)(F)F)c3)C(=O)C2(C)C)cc1F` [MDV-3100], for which the “inhibition of growth of AIPC” value in the data set on AIPC [8] and in the data set on AIPC [9] was “can inhibit the growth of AIPC” each time.

Consider `CC1(C)C(=O)N(c2ccc(C#N)c(C(F)(F)F)c2)C(=S)N1c1ccc(OC[C@@H](O)CO)cc1` [Crystal form I, (S)-4-(3-(4-(2,3-dihydroxypropoxy)phenyl)-4,4-dimethyl-5-carbonyl-2-thioimidazolin-1-yl)-2-(trifluoromethyl)benzonitrile], for which the “purity as detected by HPLC” value in data set [10] (40° C., day 0) is given as 99.93%; in [10] (40° C., day 5) it was 99.91%; in data set [10] (40° C., day 10) it was 99.91%; in data set [10] (60° C., day 0) it was 99.93%; in data set [10] (60° C., day 5) it was 99.92%; in data set [10] (60° C., day 10) it was 99.90%. Besides, the “purity as detected by HPLC” value in [10] (Lighting (4500 Lux), day 0) worked out at 99.93%; in data set [10] (Lighting (4500 Lux), day 5), 99.91%; in [10] (Lighting (4500 Lux), day 10), 99.91%; in data set [10] (RH 75%, day 0), 99.93%; in [10] (RH 75%, day 5) it was 99.89%; in data set [10] (RH 75%, day 10), 99.91%. Besides, the “purity as detected by HPLC” value in data set [10] (RH 90%, day 0) stood at 99.93%; in data set [10] (RH 90%, day 5), 99.92%; in data set [10] (RH 90%, day 10), 99.92%. The DSC peak in data set [11] (after grinding treatment for 10 minutes) was 158.26 °C; in data set [11] (after heating treatment for 3 hours at 80° C.), 158.17 °C; in data set [11] (after pressing treatment), 158.33 °C. In addition, the Crystal form entry in [12] (0 month), in data set [12] (6 months) and in data set [12] (36 months) was “Crystal form I” each time. In addition, the Purity in data set [12] (0 month) was determined as 99.93%; in data set [12] (6 months) it was 99.93%; in data set [12] (12 months), 99.93%; in [12] (24 months), 99.93%; in [12] (36 months), 99.94%. The long-term storage stability result in data set [12] (36 months) is given as “stable after placing under such conditions for 36 months”. Also, the “relative stability of crystal forms” value in data set [7] is recorded as “more stable”.
